From patent US20060089395A1, “Nf-kb activation inhibitors” (priority 2002, published 2006)
“Also recorded” adds a separate entry of the source. Read-outs that look alike come from different tables or passages of the source.

Experiments:
NF-κ B = assay: Inhibitory activity of NF-κ B activation, luciferase reporter assay in HepG2 under TNF-α stimulation; format: cell-based, human
Procedure, shortened: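 HepG2 cells transiently transfected with a luciferase reporter driven by five tandem NF-κB binding sites, then incubated 6–24 h. Stimulated with TNF-α (40 ng/ml) with or without test compound for 4 h. Intracellular luciferase read by chemiluminescence; inhibition expressed relative to activity without compound.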

IL-6 = assay: Inhibition of IL-6 production by TNFα stimulation in synovial fibroblasts derived from a rheumatoid patient (ELISA); format: cell-based, human; settings: for inhibition of the production of IL-6 (in words): rheumatic patient-derived synovial fibroblasts under TNFα stimulation; for IC50: synovial fibroblasts, 10 ng/ml TNFα, 3 days, read-out: Inhibition against Mediator Release IC50(nM) IL-6
Description: (§1) Synovial fibroblasts (Human Synoviocyte (RA-Positive), Toyobo, T4040-05) were cultured for 3 days in a medium containing 10 ng/ml of TNFα and a test compound. IL-6 and IL-8 in the supernatant were measured by the ELISA method, and PGE2 (prostaglandin E2) was measured by the EIA method.

IL-8 = assay: Inhibition of IL-8 production by TNFα stimulation in synovial fibroblasts derived from a rheumatoid patient (ELISA); format: cell-based, human; settings: for inhibition of the production of IL-8 (in words): rheumatic patient-derived synovial fibroblasts under TNFα stimulation; for IC50: synovial fibroblasts, 10 ng/ml TNFα, 3 days, read-out: Inhibition against Mediator Release IC50(nM) IL-8
Description: as §1

PGE2 = assay: Inhibition of PGE2 production by TNFα stimulation in synovial fibroblasts derived from a rheumatoid patient (EIA); format: cell-based, human; settings: for inhibition of the production of PGE2 (in words): rheumatic patient-derived synovial fibroblasts under TNFα stimulation; for IC50: synovial fibroblasts, 10 ng/ml TNFα, 3 days, read-out: Inhibition against Mediator Release IC50(nM) PGE2
Description: as §1

[1] = system: type II collagen induced arthritis; assay: Inhibitory test against type II collagen induced arthritis in mice; format: in vivo, Balb/c mice; settings: 10 mg/kg intraperitoneally once in two days; day 44; score of the control = 100%
Description: Balb/c mice were immunized with heterologous type II collagen and Freund's complete adjuvant by subcutaneous or intraperitoneal injection. At 21 days after the treatment, these mice were immunized again with heterologous type II collagen and Freund's incomplete adjuvant by subcutaneous or intraperitoneal injection to develop arthritis.
A test substance suspended in an appropriate diluent or the diluent alone (negative control) was administered intraperitoneally once in two days from the day of the first immunization, and as for arthritis developed after the second immunization, clinical symptoms of each ankle joint of all foots were recorded day after day as numerous scores. When the score of the control measured on day 44 after administration of 10 mg/kg of the medicament of the present invention was expresses as 100%, rates of exacerbation (%) of the clinical symptoms of arthritis were 37.5 (Compound No. 4), 76.5 (Compound No. 90), 56.2 (Compound No. 11), 64.0 (Compound No. 88), and 0.0 (Compound No. 83).

[2] = system: Vascular smooth muscle cells of normal coronary artery (Cryo CASMC); assay: Inhibitory test against proliferation of vascular smooth muscle cells of normal coronary artery under proliferation stimulation (MTS assay); format: cell-based; settings: FGF and EGF stimulation, 72 hours
Description: Vascular smooth muscle cells of normal coronary artery (Cryo CASMC) were cultured for 2 hours in the presence or absence of a test substance in DMEM medium containing 0.5% of FBS and insulin (5 u g/ml). Then, FGF and EGF were added for proliferation stimulation. The mixture was cultured for 72 hours and proliferation of the cells were measured by the MTS assay. The results aree shown in the following

[3] = 1 μg/mL, HepG2, TNF-α (40 ng/ml), 4 hours
[4] = 10 μg/mL, HepG2, TNF-α (40 ng/ml), 4 hours
[5] = Homo sapiens, 1 μg/mL, HepG2, TNF-α (40 ng/ml), 4 hours, read-out: Inhibitory Ratio of NF-κ B Activation(%) Drug Concentration 1 μg/mL
[6] = Homo sapiens, 10 μg/mL, HepG2, TNF-α (40 ng/ml), 4 hours, read-out: Inhibitory Ratio of NF-κ B Activation(%) Drug Concentration 10 μg/mL

Compound | Inhibitory Ratio of NF-κ B Activation(%) Drug Concentration 1 μg/mL (NF-κ B; [3]) | Inhibitory Ratio of NF-κ B Activation(%) Drug Concentration 10 μg/mL (NF-κ B; [4]) | IC50 (IL-6) | IC50 (IL-8) | IC50 (PGE2) | Inhibitory Ratio of Proliferation(%) Compound Concentration 250 nM [2] | Inhibitory Ratio of Proliferation(%) Compound Concentration 500 nM [2] | further results
O=C(Nc1cc(C(F)(F)F)ccc1C(F)(F)F)c1cc(Br)ccc1O [Compound No. 83] | 95.7% | 98.3% | < 10 nM | 62 nM | < 10 nM | 27.1% | 87.9% | inhibition of the production of IL-6 (in words) (IL-6): potently inhibited; also recorded: strongly inhibited; inhibition of the production of IL-8 (in words) (IL-8): potently inhibited; also recorded: strongly inhibited; inhibition of the production of PGE2 (in words) (PGE2): potently inhibited; also recorded: strongly inhibited; rates of exacerbation (%) of the clinical symptoms of arthritis [1]: 0.0%
CC(C)(C)C(=O)c1sc(NC(=O)c2cc(Br)ccc2O)nc1C(C)(C)C [Compound No. 201] | 86.8% | 97.5% | 317 nM | 599 nM | 53 nM | 59.8% | 84.4% | –
O=C(Nc1cc(C(F)(F)F)cc(C(F)(F)F)c1)c1cc(-c2ccccc2)ccc1O [Compound No. 23] | 91.8% | 96.8% | 540 nM | 876 nM | 809 nM | 31.6% | 89% | –
CC(C)(C)c1nc(NC(=O)c2cc(Br)ccc2O)sc1N1CCN(c2ccccc2)CC1 [Compound No. 207, 5-Bromo-N-{4-[(1,1-dimethyl)ethyl]-5-(4-phenylpiperazin-1-yl)thiazol-2-yl}-2-hydroxybenzamide] | – | – | – | – | – | 52.5% | 84% | inhibition at 1 µg/mL (NF-κ B; [5]): 92.5%; inhibition at 10 µg/mL (NF-κ B; [6]): 95.9%; IC50 (IL-6; Homo sapiens, Fibroblast, 72 h): 641 nM; IC50 (IL-8; Homo sapiens, Fibroblast, 72 h): 832 nM; IC50 (PGE2; Homo sapiens, Fibroblast, 72 h): 834 nM
COc1cc(NC(=O)c2cc(Br)ccc2O)cc(C(F)(F)F)c1 [Compound No. 93] | 84.5% | 97.2% | 130 nM | 753 nM | 47 nM | 12.1% | 87.2% | –
O=C(Nc1cc(C(F)(F)F)ccc1C(F)(F)F)c1cc(Br)ccc1O [Compound No. 268] | 87.1% | 98.4% | – | – | – | 5.6% | 9.8% | –
COc1ccc(Oc2ccc(C(F)(F)F)cc2NC(=O)c2cc(Cl)ccc2O)cc1 [Compound No. 253] | 96.3% | 99.5% | – | – | – | 84.1% | 91% | –
O=C(Nc1cc(C(F)(F)F)cc(C(F)(F)F)c1)c1cc(C=Cc2ccccc2)ccc1O [Compound No. 19] | 95.5% | 96.9% | – | – | – | 34.0% | 88.6% | –
O=C(Nc1cc(C(F)(F)F)cc(C(F)(F)F)c1)c1ccc2ccccc2c1O [Compound No. 71] | 89.6% | 95.0% | – | – | – | 81.6% | 92.4% | –
O=C(Nc1cc(C(F)(F)F)cc(C(F)(F)F)c1)c1cc(-c2ccsc2)ccc1O [Compound No. 29] | 81.7% | 92.9% | – | – | – | 52.2% | 90.4% | –
O=C(Nc1cc(C(F)(F)F)cc(C(F)(F)F)c1)c1cc(Br)ccc1O [compound 6] | 94.9% | 98.6% | 352 nM | 351 nM | 358 nM | 88.0% | 94.8% | –
CC(C)(C)c1ccc(O)c(C(=O)Nc2cc(C(F)(F)F)cc(C(F)(F)F)c2)c1 [compound 11, N-[3,5-Bis(trifluoromethyl)phenyl]-5-[(1,1-dimethyl)ethyl]-2-hydroxybenzamide] | – | – | – | – | – | 86.7% | 91.4% | inhibition at 1 µg/mL (NF-κ B; [5]): 92.9%; inhibition at 10 µg/mL (NF-κ B; [6]): 98.3%; IC50 (IL-6; Homo sapiens, Fibroblast, 72 h): 247 nM; IC50 (IL-8; Homo sapiens, Fibroblast, 72 h): 377 nM; IC50 (PGE2; Homo sapiens, Fibroblast, 72 h): 389 nM; rates of exacerbation (%) of the clinical symptoms of arthritis [1]: 56.2%
CC(C)(C)c1cc(NC(=O)c2cc(Br)ccc2O)cc(C(C)(C)C)c1 [Compound No. 140] | 70.9% | 82.0% | 808 nM | – | 21 nM | 4.3% | 86.1% | –
O=C(Nc1cc(C(F)(F)F)cc(C(F)(F)F)c1)c1ccc(Cl)cc1O [Compound No. 51] | 90.5% | 98.2% | 874 nM | 832 nM | 863 nM | 26.2% | 86.6% | –
O=C(Nc1cc(C(F)(F)F)ccc1Cl)c1cc(Cl)ccc1O [Compound No. 88, 5-chloro-N-[2-chloro-5-(trifluoromethyl)phenyl]-2-hydroxybenzamide] | – | – | – | – | – | – | – | inhibition at 1 µg/mL (NF-κ B; [5]): 94.8%; inhibition at 10 µg/mL (NF-κ B; [6]): 97.1%; IC50 (IL-6; Homo sapiens, Fibroblast, 72 h): 88 nM; inhibition of the production of IL-6 (in words) (IL-6): potently inhibited; also recorded: strongly inhibited; inhibition of the production of IL-8 (in words) (IL-8): potently inhibited; also recorded: strongly inhibited; IC50 (PGE2; Homo sapiens, Fibroblast, 72 h): 33 nM; inhibition of the production of PGE2 (in words) (PGE2): potently inhibited; also recorded: strongly inhibited; rates of exacerbation (%) of the clinical symptoms of arthritis [1]: 64.0%
CC(C)(C)C(=O)c1sc(NC(=O)c2cc(Cl)ccc2O)nc1C(C)(C)C [Compound No.199, 5-Chloro-N-{4-[(1,1-dimethyl)ethyl]-5-[(2,2-dimethyl)propionyl]thiazol-2-yl)-2-hydroxybenzamide] | – | – | – | – | – | 35.1% | 84.6% | inhibition at 0.1 µg/mL (NF-κ B; Homo sapiens, HepG2, 4 h, 0.1 μg/ml, comparison table, reporter assay, read-out: Inhibitory Ratio of NF-κB Activation (%) 0.1 μg/ml): 19.6%; inhibition at 1 µg/mL (NF-κ B; Homo sapiens, HepG2, 4 h, 1 μg/ml, comparison table, reporter assay, read-out: Inhibitory Ratio of NF-κB Activation (%) 1 μg/ml): 96.4%; inhibition at 10 µg/mL (NF-κ B; Homo sapiens, HepG2, 4 h, 10 μg/ml, comparison table, reporter assay, read-out: Inhibitory Ratio of NF-κB Activation (%) 10 μg/ml): 98.4%; inhibition at 1 µg/mL (NF-κ B; [5]): 96.4%; inhibition at 10 µg/mL (NF-κ B; [6]): 98.4%; IC50 (IL-6; Homo sapiens, Fibroblast, 72 h): 309 nM; IC50 (IL-8; Homo sapiens, Fibroblast, 72 h): 458 nM; IC50 (PGE2; Homo sapiens, Fibroblast, 72 h): 68 nM
